Laboratory results from PMC3782441, “Putative Bioactive Motif of Tritrpticin Revealed by an Antibody with Biological Receptor-Like Properties” (PLoS ONE, 2013).
Converted amounts (≈) assume the structure as drawn. “Also recorded” adds a separate entry of the source. Where two headings read alike, the source gives them in different places. Where no end group is shown, it is not given here.

Columns and labels:
E. coli BL21λD3 [1] = assay: Radial diffusion assay, E. coli BL21λD3; format: cell-based; conditions: 50 nmol of peptide, 37°C for 3 h
Method: (§1) Radial diffusion assay using double-layered agarose involved incubating ~ 2 x 10^6 mid-log phase bacterial cells with 50 nmol of peptide solution in nutrient-poor agarose at 37°C for 3 h. […] Minimum inhibitory concentration (MIC) was determined by broth microdilution method in which ~10^4 bacterial cells in 100 µl of 10 mM phosphate buffer were incubated for with serially diluted peptide solution in a 96-well microtiter plate for 2 hrs at 37°C. Addition of LB medium subsequently was used to ascertain the minimum peptide concentration sufficient to prevent bacterial growth, observable at OD600.

[2] = tested on: different bacterial strains; assay: Antimicrobial activity against different bacterial strains (radial diffusion, MIC); format: cell-based
Method: as §1

calmodulin = conditions: ref [19]; cited from earlier work
Excerpt: (§2) It is now well established that antimicrobial peptides are an important component of the innate defenses in a wide variety of species. They display broad spectrum of activity, rapid killing kinetics, and a lower incidence of generating resistance and are being increasingly explored as an alternative to conventional antibiotics especially as more and more drug resistant strains emerge. As most of these peptides kill microorganisms rapidly as compared to other antibiotics, development of resistance to them also is less likely. One of the large classes of antimicrobial pepti ...

[3] = ref [20]; cited from earlier work
Excerpt: as §2

topoisomerase I = conditions: ref [19]; cited from earlier work
Excerpt: as §2

DNA = conditions: ref [17],[18]; cited from earlier work
Excerpt: as §2

E. coli BL21λD3 [4] = format: cell-based; conditions: BL21λD3, 2 h
Method: as §1

E. coli ATCC25922 = format: cell-based; conditions: ATCC25922, 2 h
Method: as §1

mAb 6C6D7 = assay: SPR binding of K-tritrpticin (immobilised) to mAb 6C6D7; design: species or system BALB/c mice; conditions: for ka (rate of association) / kd (rate of dissociation): BIAcore 2000, CM4 chip, bivalent model; for Kd: KD = kdiss/kass, read-out: KD (dissociation constant); for ΔGeq (Gibbs free energy at equilibrium): ΔGeq = RTlnKD
Method: (§3) Affinity measurements were based on surface plasmon resonance (SPR) technique, carried out on BIAcore 2000 (GE Healthcare). K-tritrpticin was amine coupled to a CM4 chip (~6 resonance units) and mAb 6C6D7 was injected as analyte with a 6 min association/15 min dissociation phase. Regeneration was achieved by 0.1 N HCl. Interaction curves were simultaneously fit using bivalent model in BIAevaluation program to determine KD = kdiss/kass and ΔGeq = RTlnKD, R is the universal gas constant and T is the temperature in kelvin. The temperature sensitivity of Ag association and dissociation rates of the Ab was assessed on the basis of the Arrhenius plots. The slopes of the Arrhenius plots provide the activation energy (Ea) for the corresponding steps. The individual thermodynamic parameters were calculated using the following equations: ΔHa/d = Ea-RT; ln(ka/d/T) = -ΔHa/d/RT + […] + ln(K'/h). In these equations K' represents Boltzmann’s constant and h the Planck’s constant. Using these equations, the corresponding values of ΔH, T∆S, and ΔG for association and dissociation as well as the corresponding net values at equilibrium were calculated.

K-tritrpticin (pig) [5] = target: T1, K-tritrpticin (pig); assay: SPR; BIAcore 2000; K-tritrpticin amine coupled to a CM4 chip (~6 RU), mAb 6C6D7 as analyte, 6 min association/15 min dissociation; bivalent model; 20 C
T1 sequence (peptide): KVRRFPWWWPFLRR

K-tritrpticin (pig) [6] = target: T1, K-tritrpticin (pig); assay: SPR; BIAcore 2000; K-tritrpticin amine coupled to a CM4 chip (~6 RU), mAb 6C6D7 as analyte, 6 min association/15 min dissociation; bivalent model; 35 C
K-tritrpticin (pig) [7] = target: T1, K-tritrpticin (pig); assay: SPR; BIAcore 2000; K-tritrpticin amine coupled to a CM4 chip (~6 RU), mAb 6C6D7 as analyte, 6 min association/15 min dissociation; bivalent model; 30 C
K-tritrpticin (pig) [8] = target: T1, K-tritrpticin (pig); assay: SPR; BIAcore 2000; K-tritrpticin amine coupled to a CM4 chip (~6 RU), mAb 6C6D7 as analyte (62.5-1000 nM), 6 min association/15 min dissociation; bivalent model; 25 C
K-tritrpticin (pig) [9] = target: T1, K-tritrpticin (pig); assay: SPR; BIAcore 2000; K-tritrpticin amine coupled to a CM4 chip (~6 RU), mAb 6C6D7 as analyte, 6 min association/15 min dissociation; bivalent model; 15 C
[10] = SPR binding of mAb 6C6D7 (analyte) to peptide antigen K-tritrpticin
Method: as §3

[11] = ELISA of hybridoma clones on indolicidin; format: binding
Excerpt: (§4) The sera from the immunized mouse were checked for anti-tritrpticin antibody titers. The highest responder of the group of mice was then sacrificed to harvest B cells from the spleen. The cells were allowed to fuse with the SP2/0 myeloma cells, maintained in log phase, in the presence of PEG1600 (Sigma-Aldrich). The cells were subjected to hypoxanthine-aminopterin-thymidine (Sigma) selection in DMEM (PAA Laboratories GmbH, Austria) in which only the hybrid cells are able to survive and grow. The supernatant of the wells with colonies of hybrid cells was screened for the presence of peptide recognizing Ab by ELISA, in which tritrpticin was used as coating antigen. The positive clones were further subcloned using limited dilution technique to ensure monoclonality.
(§5) The binding of the Ab from cell supernatant or in purified form, to the various peptide ligands was assayed by indirect ELISA. The peptide analogs were used as coating Ag at a concentration of 10 µg per well on 96-well immunosorbent plates. […] HRP –labeled goat anti-mouse IgG was used as secondary Ab (Jackson Immuno Research) and o-phenylenediamine (Sigma) and H2O2 were used as peroxidase substrate. Absorbance was recorded at 490 nm after addition of 1 N H2SO4.

[12] = ELISA of hybridoma clones on tritrpticin; format: binding; conditions: culture supernatant screening
Excerpt: as §4, §5

BSA = assay: ELISA of hybridoma clones on BSA (negative control); format: binding
Excerpt: as §4, §5

[13] = equilibrium, all temperatures 15-35 °C, Arrhenius plot

## EHGTPPRVMSSM [unrelated peptide used as negative control, reference compound]
E. coli BL21λD3 [1]
  formation of clearance zone: did not led to the formation of clearance zone
[2]; 50 nmoles of peptide, radial diffusion, different bacterial strains
  formation of clearance zone: did not led to the formation of clearance zone

## ILPWKWPWWPWRR [indolicidin, closely related cathelicidin peptide indolicidin ([…])]
calmodulin
  interaction with calmodulin: interaction
[3]
  interaction with ATP: interaction
Topoisomerase I
  interaction with topoisomerase I: interaction
DNA
  interaction with DNA: interaction

## YHDRPPPRPFKH-OH [12PhD1]
[2]
  antimicrobial activity compared with tritrpticin: lower though qualitatively similar broad spectrum antimicrobial activity as tritrpticin
[2]; radial diffusion and MIC, bacterial strains
  antibiotic activity: broad spectrum antibiotic activity
E. coli BL21λD3 [4]
  MIC: 400 µM
E. coli ATCC25922
  MIC: 400 µM

## CC(C)C[C@H](NC(=O)[C@H](Cc1ccccc1)NC(=O)[C@@H]1CCCN1C(=O)[C@H](Cc1c[nH]c2ccccc12)NC(=O)[C@H](Cc1c[nH]c2ccccc12)NC(=O)[C@H](Cc1c[nH]c2ccccc12)NC(=O)[C@@H]1CCCN1C(=O)[C@H](Cc1ccccc1)NC(=O)[C@H](CCCNC(=N)N)NC(=O)[C@H](CCCNC(=N)N)NC(=O)[C@@H](N)C(C)C)C(=O)N[C@@H](CCCNC(=N)N)C(=O)N[C@@H](CCCNC(=N)N)C(=O)O [Tritrpticin]
E. coli BL21λD3 [4]
  MIC: 3.12 µM (≈ 5.94 µg/mL)
E. coli ATCC25922
  MIC: 3.12 µM (≈ 5.94 µg/mL)

## K-tritrpticin: tritrpticin with lysine introduced at the N terminus (KVRRFPWWWPFLRR)
mAb 6C6D7; 15 °C
  ka (rate of association): 24400 M⁻¹ s⁻¹
  kd (rate of dissociation): 0.00515 s⁻¹
  Kd: 211 nM
  ΔGeq (Gibbs free energy at equilibrium): -8.80 kcal/mol
mAb 6C6D7; 20 °C
  ka (rate of association): 37900 M⁻¹ s⁻¹
  kd (rate of dissociation): 0.0115 s⁻¹
  Kd: 303 nM
  ΔGeq (Gibbs free energy at equilibrium): -8.74 kcal/mol
mAb 6C6D7; 25 °C
  ka (rate of association): 39100 M⁻¹ s⁻¹
  kd (rate of dissociation): 0.0137 s⁻¹
  Kd: 350 nM
  ΔGeq (Gibbs free energy at equilibrium): -8.80 kcal/mol
mAb 6C6D7; 30 °C
  kd (rate of dissociation): 0.0231 s⁻¹
  Kd: 545 nM
  ΔGeq (Gibbs free energy at equilibrium): -8.68 kcal/mol
mAb 6C6D7; 35 °C
  ka (rate of association): 54100 M⁻¹ s⁻¹
  kd (rate of dissociation): 0.0343 s⁻¹
  Kd: 634 nM
  ΔGeq (Gibbs free energy at equilibrium): -8.73 kcal/mol

B1: anti-tritrpticin monoclonal antibody 6C6D7 (antibody, V domains shown)
VH: VELQESGPELVKPGASVKVSCKASGYSSTDYNMNWVKQSHGKSLEWIGSFDPYNGGITYNQKFEGKATLTVDKSSNTAFMHLNSLTSEDSAVYYCAKYFGYDAWFAYWGQGTLVTVST
VL: FIVMTQTPASLAVSLGQRATISCKASQSVDYGGDSYLNWYQQKPGQPPKLLIYAASNLESGIPARFSGSGSGTDFTLNIHPVEEEDAATYFCQQSHEDPLTFGAGTKLELR
K-tritrpticin (pig) [5]
  Kd: 303 nM
  koff: 0.0115 s⁻¹
  kon: 37900 M⁻¹ s⁻¹
K-tritrpticin (pig) [6]
  Kd: 634 nM
  koff: 0.0343 s⁻¹
  kon: 54100 M⁻¹ s⁻¹
K-tritrpticin (pig) [7]
  Kd: 545 nM
  koff: 0.0231 s⁻¹
  kon: 44200 M⁻¹ s⁻¹
K-tritrpticin (pig) [8]
  Kd: 350 nM
  koff: 0.0137 s⁻¹
  kon: 39100 M⁻¹ s⁻¹
K-tritrpticin (pig) [9]
  Kd: 211 nM
  koff: 0.00515 s⁻¹
  kon: 24400 M⁻¹ s⁻¹

B2: mAb 6C6D7: anti-tritrpticin monoclonal antibody, 6C6 subcloned as 6C6D7 (antibody, V domains shown)
VH: B1 VH
VL: B1 VL
[10]; 15 °C to 35 °C
  fold decrease in affinity (KD): 3 fold
  fold increase in kdiss: approximately 7 fold
  fold increase in the association rate constant: 2 fold
[10]; 25 °C
  kass: 39100 M⁻¹ s⁻¹
  kdiss: 0.0137 s⁻¹
[10]; 25 °C, read-out: affinity (KD)
  Kd: 350 nM
[10]; Arrhenius plots, 15-35 °C
  temperature sensitivity of dissociation phase: more sensitive to variation in temperature in comparison with the association phase
[10]; [13]
  enthalpy contribution to binding (ΔH): marginally unfavorable
  entropy contribution to binding (TΔS): highly favorable

B3: 6C6: anti-tritrpticin hybridoma clone, subcloned as 6C6D7 (antibody, V domains shown)
VH: B1 VH
VL: B1 VL
[11]
  binding to indolicidin (ELISA): not able to bind
[12]
  binding to tritrpticin (ELISA): significant binding
BSA
  binding to BSA (ELISA): negligible binding; also recorded: not able to bind
